Common to all, as to test: NCI-60 cell line screen, 48 h
Test [1] concerns SF-295 CNS.
The test system of test [2] is ACHN renal.
Test [3] deals with HOP-62 NSCLC.
For test [4], the system named is SK-MEL-28 melanoma.
Test [5] deals with TK-10 renal.
In test [6] the test system is LOX IMVI melanoma.
Test [7] has as its system SF-539 CNS.
Test [8] deals with HCT-116 colon.
Test [9] relates to SW-620 colon.
The test system of test [10] is K-562 leukemia.

Structures are written as SMILES. “And” between values parts separate entries of the source, which are not always exact repeats. Equal entries are not always repeated.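 How tested: cells in 96-well plates exposed to compound for 48 hours at five concentrations. Abbreviation: GI50, concentration required for 50% inhibition of growth. TGI is the concentration that stops growth completely.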

For `NCCNCC(O)CO` (stereo unspecified), the TGI in [1], in [2], in [3], in [4], in test [5] and in test [6] was more than 100 µM in each case. For the same molecule, the TGI in test [7], in test [8], in test [9] and in test [10] was more than 100 µM throughout.
Take `COc1cc(-c2oc3c(OC)c(OC)cc(O)c3c(=O)c2OC)ccc1O`: the GI50 in [1] is 3.24 µM and 8.34 µM; in test [2], 1.84 µM and 4.71 µM; in [3], 4.01 µM and 14.7 µM; in [4], > 100 µM and 20 µM; in test [6], 1.88 µM and 7.95 µM; in test [9], > 100 µM and 37.8 µM. Besides, the TGI in [1] is > 100 µM and 38.1 µM; in [3] it was more than 100 µM; in [4], more than 100 µM; in test [5], 22.8 µM and 40.2 µM; in [6], > 100 µM and 36.3 µM; in [7], > 100 µM and 49.2 µM. Moreover, the TGI in test [8] was more than 100 µM; in test [9], more than 100 µM; in test [10], more than 50 µM.
Regarding `COC(=O)c1ccc(=O)c2nc3/c(=C/O)c(O)cc(=O)c3[nH]c12`, the GI50 in test [1] was 0.153 µM; in [2], 0.478 µM; in [3] it was 0.461 µM; in test [4], 4.17 µM; in [5], 1.3 µM; in test [6], 0.662 µM. Moreover, the GI50 is 1.21 µM in test [7], 0.321 µM in [8], 1.21 µM in [9] and 0.372 µM in test [10]. Besides, the TGI in test [1] is 14.3 µM and 8.64 µM; in test [2], 16.6 µM and 14.5 µM; in [3] it was 18.7 µM and 16.2 µM; in test [4], 19.8 µM and 21.1 µM; in test [5], 21.1 µM and 17.5 µM; in test [6] it was 20.3 µM and 15.4 µM. In addition, the TGI in [7] was 15.6 µM and 14.5 µM; in test [8] it was 14.6 µM and 11.8 µM; in test [9], > 60.4 µM and 18.9 µM; in [10], more than 100 µM.
With `Nc1ccc(C#Cc2cncnc2Nc2ccc(OCc3cccc(F)c3)c(Cl)c2)cc1`, the GI50 was 10.6 µM in test [1]; 6.87 µM in [2]; more than 17.3 µM in test [3]; more than 19 µM in test [4]; 3.58 µM in [5]; 12.8 µM in [6]. Further, the GI50 in test [7] was more than 15.8 µM; in test [8] it was 10.6 µM; in test [9] it was more than 25 µM; in [10], 11.4 µM. Besides, the TGI in test [1], in test [2], in test [3], in test [4], in [5] and in test [6] was more than 25 µM throughout. Moreover, the TGI in [7], in [8], in test [9] and in [10] was more than 25 µM throughout.
As for `COc1ccc2cc(C(=O)/C=C/c3cccc(Cl)c3Cl)ccc2c1`, the GI50 was 5.94 µM in [1]; 3.76 µM in test [2]; 15.4 µM in test [3]; 22.7 µM in test [4]; 18.6 µM in test [5]; 0.651 µM in [6]. Moreover, the GI50 in test [7] is 2.68 µM; in test [8] it was 1 µM; in test [9], 1.32 µM; in test [10], 4.93 µM. The TGI in [1] was more than 100 µM; in test [2], 33 µM; in [3], 38.9 µM; in [4], more than 71.9 µM; in test [5] it was more than 86.3 µM; in [6], more than 24.9 µM. For the same molecule, the TGI in test [7] is 12 µM; in test [8], 19.6 µM; in test [9], more than 100 µM; in [10], more than 100 µM.
For `NC(=O)c1[nH]nc(C2OC(CO)C(O)C2O)c1O` (stereo unspecified), the TGI in test [1] is 848 µM; in test [2] it was 1730 µM; in test [3], 478 µM; in test [4] it was more than 5000 µM; in [5], 2320 µM; in test [6], 309 µM. Also, the TGI stood at 505 µM in [7], 3770 µM in test [8], 2050 µM in [9] and 2290 µM in test [10].
On to `CC(CN)[C@@H]1CC[C@]2(CO)CC[C@]3(C)[C@H](CC[C@@H]4[C@@]5(C)CCC(NCCO)C(C)(C)[C@@H]5CC[C@]43C)[C@@H]12` (stereo partly specified), for which the GI50 in [1] is 1.74 µM; in [2] it was 5.2 µM; in [3] it was 2 µM; in test [4], 1.87 µM; in test [5] it was 1.81 µM; in [6], 1.64 µM. The GI50 is 1.61 µM in test [7], 1.66 µM in test [8], 1.71 µM in test [9] and 1.54 µM in test [10]. Besides, the TGI in [1] was 3.4 µM; in test [2] it was 17.6 µM; in test [3], 4.08 µM; in [4], 3.43 µM; in test [5] it was 3.88 µM; in test [6] it was 3.12 µM. The TGI in test [7] is 3.02 µM; in test [8] it was 3.41 µM; in test [9], 3.26 µM; in test [10] it was 3.35 µM.
For the molecule `CC(C)(C)OC(=O)NCCCCCCCCn1c2c(c3ccccc3c1=O)C(=O)c1ccccc1-2`, the GI50 in test [1] was 11.1 µM; in test [2], 10.9 µM; in [3], 11.6 µM; in [4], more than 50 µM; in test [5], 11.7 µM; in test [6], more than 32 µM. In addition, the GI50 is 9.64 µM in [7], 26.8 µM in [8], more than 50 µM in test [9] and more than 50 µM in test [10]. Further, the TGI in [1] was more than 41.6 µM; in test [2], more than 30 µM; in [3], 35 µM; in test [4], more than 50 µM; in [5] it was 30.7 µM; in test [6] it was more than 50 µM. For the same molecule, the TGI in test [7] is 29.6 µM; in test [8], more than 50 µM; in test [9] it was more than 50 µM; in test [10], more than 50 µM.
Consider `C=C(CN1CCN(c2cccc(C(F)(F)F)c2)CC1)c1ccc(C(=O)Nc2ccccc2N)cc1`, for which the GI50 in test [1] is 0.537 µM; in [2] it was 0.92 µM; in test [3], 0.696 µM; in [4], 3.4 µM; in test [5], 0.807 µM; in test [6], 0.56 µM. The GI50 in test [7] was 0.543 µM; in test [8] it was 1.14 µM; in test [9] it was 1.28 µM; in test [10], 0.185 µM. The TGI in [1] is 3.88 µM; in [2], 11.1 µM; in [3], 6.27 µM; in test [4] it was more than 27.2 µM; in test [5], 5.31 µM; in [6], 6.25 µM. The TGI turned out to be 2.82 µM in [7], 11.7 µM in test [8], 15.9 µM in test [9] and 8.27 µM in [10].
Turning to `NC(=O)c1csc(C2C=CC(CO)O2)n1` (stereo unspecified), the TGI is more than 10 µM in [1]; more than 100 µM in test [2]; more than 100 µM in test [3]; more than 100 µM in [4]; more than 100 µM in test [5]; more than 100 µM in test [6]. Also, the TGI in test [7], in [8], in test [9] and in test [10] was more than 100 µM throughout.
As for `Cc1ccc(S(=O)(=O)CNC(=S)CCCC(=S)NCS(=O)(=O)c2ccc(C)cc2)cc1`, the TGI was more than 100 µM in test [1]; more than 100 µM in test [3]; more than 100 µM in test [5]; 39.4 µM in test [6]; more than 100 µM in [7]; more than 100 µM in test [8]. Also, the TGI in [9] and in test [10] was more than 100 µM in each case.
Take `O=c1cccc(C#Cc2ccccc2)o1`: the GI50 in test [1] is 5.03 µM; in test [2] it was 7.7 µM; in [3], 4.63 µM; in test [4] it was 15 µM; in test [5], 6.06 µM; in test [6] it was 7.89 µM. Further, the GI50 in test [7] was 3.72 µM; in test [8], 2.8 µM; in test [9], 4.85 µM; in [10] it was 40.4 µM. The TGI in test [1] came out at 13.8 µM; in [2], 21.5 µM; in test [3], 15.4 µM; in test [4] it was 40.2 µM; in [5], 22.7 µM; in [6], 30.1 µM. Moreover, the TGI in [7] was 27.6 µM; in test [8] it was 26.2 µM; in test [9], 43.3 µM; in test [10], more than 100 µM.
Consider `CCCCn1c2c(c3ccccc3c1=O)C(=O)c1ccccc1-2`, for which the TGI in test [1], in test [3], in test [4], in test [5], in test [6] and in test [7] was more than 100 µM in each case. Besides, the TGI in test [8], in test [9] and in test [10] was more than 100 µM each time.
In the case of `Cc1ccc(S(=O)(=O)N2CCC3(C(/C=C/c4ccccc4)=Nc4ccccc43)C2c2ccccc2)cc1` (stereo unspecified), the TGI in [1], in test [2], in test [3], in test [4], in test [5] and in test [6] was more than 100 µM in each case. The TGI in test [7], in test [8], in test [9] and in test [10] was more than 100 µM throughout.
`Cc1cc(=O)oc2cc(OC(=O)Nc3ccc(Cl)c(Cl)c3)ccc12`: the TGI in test [1] was 74.4 µM; in [2], 78.1 µM; in test [3], 63.2 µM; in [4], 67.3 µM; in test [5] it was more than 100 µM; in test [6] it was 37.2 µM. For the same molecule, the TGI came to 38.5 µM in [7], 40.7 µM in test [8], 48.1 µM in [9] and 28.2 µM in test [10].
As to `C=C1C(=O)O[C@H]2[C@H]1CC/C(COC(=O)C(=O)c1c[nH]c3ccc(OC)cc13)=C\CC[C@@]1(C)O[C@@H]21`, the GI50 was 12.4 µM in test [1]; 4.21 µM in [2]; 6.49 µM in test [3]; 5.05 µM in test [4]; 6.41 µM in test [5]; 1.49 µM in test [6]. Also, the GI50 in test [7] was 6.15 µM; in [8] it was 4.48 µM; in test [9], 4 µM; in test [10] it was more than 100 µM. In addition, the TGI in [1] was 29.5 µM; in test [2], 9.2 µM; in test [3] it was 11.9 µM; in test [4], 9.55 µM; in [5] it was 14.5 µM; in [6], 2.35 µM. For the same molecule, the TGI is 10.4 µM in test [7], 8.73 µM in test [8], 16.2 µM in test [9] and more than 100 µM in test [10].
On to `CC1CCCC(C(O)CC2CC(=O)N(c3ccccc3)C(=O)C2)C1=O` (stereo unspecified), for which the TGI in [1], in test [2], in test [3], in [4], in [5] and in test [6] was more than 100 µM in each case. The TGI in [7], in [8], in [9] and in [10] was more than 100 µM each time.
With `COc1cc2c3c(n(CCCN4CCN(C)CC4)c(=O)c2cc1OC)-c1cc2c(cc1C3=O)OCO2`, the GI50 in test [1] was 10.7 µM; in test [2], 10.1 µM; in test [3], 18 µM; in test [4], 16.5 µM; in test [5] it was 17.1 µM; in test [6], 3.81 µM. Moreover, the GI50 in [7] was 17.7 µM; in [8], 1.49 µM; in test [9], 11.2 µM; in [10], 6.49 µM. Besides, the TGI was 31.7 µM in [1]; 22.4 µM in test [2]; 95.8 µM in test [3]; 43.2 µM in [4]; 31.9 µM in [5]; 20.4 µM in test [6]. Also, the TGI in test [7] was 38.2 µM; in test [8], 11.5 µM; in [9] it was 54.1 µM; in [10], 22 µM.
With `CN(C)c1ccc(/C=C2\CNC/C(=C\c3ccc(N(C)C)cc3)C2=O)cc1`, the TGI in [1] was more than 100 µM; in [2], 54 µM; in test [3], more than 100 µM; in test [4], 42 µM; in [5], more than 100 µM; in test [6], 37 µM. The results for the TGI in test [7], in test [8] and in test [10] were more than 100 µM, 35.1 µM and more than 100 µM, respectively.

Source of the values: PubChem BioAssay (NCI).
